{
  "source": "patent US6818665B2",
  "about": "“Treatment of obstructive sleep apnea” (priority 2003, dated 2004)",
  "test_system": "OSA patients",
  "experiment": "oximeter tests / sleeping registration of OSA patients",
  "type": "in vivo",
  "from_the_text": "The medical treatment of OSA must be effective, inexpensive and without any side effects because it must be ongoing for the rest of the patient's life during the sleeping period regardless of the time of the day or night. By conducting regular oximeter tests in connection with the fitting of mechanical assistance, it has been concluded that anti-oxidants, such as tokoferole, has some effect. Hormones that govern the sleep initiation during for example, jet lag, such melatonin that is formed in a gland from the amino-acid tryptophane with serotonin as an intermediate step. […] The corresponding effect has been noticed when the intake has stopped and this effect is normally quicker.\nDHEA prevents unwanted complete or total (100%) relaxation of the muscles in the throat region caused melatonin. […] ACTH may be used to increase the production of DHEA. Melatonin may be taken as tablets and lasts about 24 hours. Preferably, melatonin is taken at night. A suitable melatonin dose may be about 0.5-5 mg. DHEA may also be taken as tablets and lasts about 24 hours. Preferably, DHEA is taken in the morning. A suitable DHEA dose may be about 1-5 mg. Of course, melatonin and DHEA may be administered at other times of the day.",
  "data": [
    {"molecule": "C[C@]12CC[C@H](O)CC1=CC[C@@H]1[C@@H]2CC[C@]2(C)C(=O)CC[C@@H]12", "note": "[DHEA, dehydroepiandrosterone]", "values": [
      {"measurement": "effect of parallel intake on the desired effect (reduced desaturations and SpO2 reduction)", "setting": "parallel intake with melatonin, especially in combination with ACTH", "value": "synergistic increase of the desired effect"}
    ]},
    {"molecule": "COc1ccc2[nH]cc(CCNC(C)=O)c2c1", "note": "[melatonin, 5-metoxy-N-acetyletryptamine]", "values": [
      {"measurement": "effect on the sleeping registration of OSA patients (number of desaturations and level of SpO2 reduction below 90%)", "setting": "low dose 0.5-5 mg depending on age, 10-80 years", "value": "distinct effect"},
      {"measurement": "time to optimal effect", "setting": "regular intake", "value": "after a couple of weeks"}
    ]},
    {"molecule": "tokoferole", "values": [
      {"measurement": "effect in regular oximeter tests", "setting": "anti-oxidants, oximeter tests in connection with the fitting of mechanical assistance", "value": "some effect"}
    ]}
  ]
}
